In PubChem BioAssay AID179 (DTP/NCI, 2004):
Active and inactive are the calls of the source.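 The calls were made as follows: active = compounds giving half or more protection of infected cells from virus-caused growth loss, again on retest; inactive = the rest.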

Tested on: CEM cells HIV-1 protection, formazan growth assay
Assay: NCI AIDS Antiviral Assay
Conditions: for IC50: measured here: growth of uninfected CEM cells
How it was run: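 Human CEM cells, uninfected and HIV-1-infected, exposed to five drug concentrations; growth measured by soluble formazan assay and scored as percent protection from infection, with protecting compounds retested.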

| SMILES | EC50 [µM] | IC50 [µM] | outcome |
| --- | --- | --- | --- |
| Cc1ccc(S(=O)(=O)NCCSCCNS(=O)(=O)c2ccc(C)cc2)cc1 | > 575 | > 575 |  |
| COc1cc(CCC(=O)CC(=O)CCc2ccc(O)c(OC)c2)ccc1O | > 200 | 34.7 |  |
| O=C1[C@H](c2ccccc2)C2c3ccccc3CCN12 (stereo partly drawn) | > 200 | 97.7 |  |
| [Co+2].[O-]c1ccccc1C=NCc1ccccc1.[O-]c1ccccc1C=NCc1ccccc1 | > 19.5 | > 19.5 |  |
| CC1=C(O)C(=O)C2C(=O)C1C(C)C2c1ccc(C)cc1 (stereo not drawn) | > 251 | > 251 |  |
| O=c1oc(-c2ccccc2)c(-c2ccccc2)c(-c2ccccc2)c1-c1ccccc1 | > 46.8 | 29.5 |  |
| Cc1ccccc1N(CCC#N)C1=NN(C(=O)CC(=O)Nc2ccc(Cl)cc2)C(c2ccccc2)C1 (stereo not drawn) | > 501 | > 501 |  |
| CCOC(=O)C1Oc2ccc([N+](=O)[O-])c3c2C1(O)CCC3 (stereo not drawn) |  |  | inactive |
| Cc1ccc(Nc2c(C#N)[n+]([O-])c3cc(Cl)ccc3[n+]2[O-])cc1 | > 20 | 19.1 |  |
| COc1ccc(C(=O)C(c2ccc(OC)cc2)C2C(=O)Oc3ccccc32)cc1 (stereo not drawn) | > 34.7 | > 34.7 |  |
| CCCCN(O)[C@@H]1CC(n2cc(C)c(=O)[nH]c2=O)OC1CO[Si](C)(C)C(C)(C)C (stereo partly drawn) | > 200 | 83.2 |  |
| COc1cc(C2(C)SCCCS2)cc(OC)c1OC | > 182 | > 182 |  |
| CN(C)CCNC(=O)c1cnn(C)c1[N+](=O)[O-] | > 200 | > 200 |  |
| O=C1NC(=O)/C(=C\c2cccc([N+](=O)[O-])c2)N1 | > 200 | 158 |  |
| NS(=O)(=O)c1cc2c(cc1Cl)NC(C(=O)c1cc(=O)c3ccc(O)cc3o1)=NS2(=O)=O | > 513 | > 513 |  |
| OC(NN=C1CCCC1)(C(F)(F)Cl)C(F)(F)Cl | > 200 | 170 |  |
| O=C(NCCc1c[nH]c2ccccc12)C(F)(F)C(F)(F)F | > 200 | 38 |  |
| Cn1c(-c2ccccc2)c(CCNC(=O)C2CCC2)c2ccccc21 | > 200 | 31.6 |  |
| Cn1c(=O)oc2cc(Br)ccc21 | > 200 | > 200 |  |
| OC1(C(Sc2ccccc2)Sc2ccccc2)CCCCCC1 |  |  | inactive |
| O=C(Cn1cc(-c2ccccc2)nn1)NC1CCCC1 | > 200 | > 200 |  |
| O=[N+]([O-])c1c(Cl)cccc1-c1c[nH]cc1Cl | > 263 | 61.7 |  |
| CN(C)c1ccc(/C=C(\NC(=O)c2ccccc2)C(=O)Nc2ccccc2C(=O)NCc2ccccc2)cc1 | > 151 | 70.8 |  |

| SMILES | EC50 [µM] | IC50 [µM] | outcome |
| --- | --- | --- | --- |
| CC1(C)C2CCC1(CS(=O)(=O)Nc1ccccc1)C(=O)C2 (stereo not drawn) | > 200 | > 200 |  |
| Clc1ccc(/C=N\N2CCCCCC2)cc1Cl | > 200 | 35.5 |  |
| C=CCc1oc(C)nc1CCCC | > 200 | > 200 |  |
| CC(C)c1cc2c3c(c1O)OC(=O)C[C@@]3(C)C1[C@@H](OC(=O)C1(C)C)C2=O (stereo partly drawn) | > 501 | 295 |  |
| c1ccc(P(=C2c3ccccc3-c3ccccc32)(c2ccccc2)c2ccccc2)cc1 |  |  | inactive |
| COc1cc(O)c2c(=O)c(OC)c(-c3ccc(OC)c(OC)c3)oc2c1.[Co] | > 100 | 56.2 |  |
| CC(C)(C)OC1=C(OC(C)(C)C)C(O)(c2ccc(Cl)cc2)C1=O (stereo not drawn) |  |  | inactive |
| Cc1ccc(Cc2cc(N3CCN(c4cccc(Cl)c4)CC3)nnc2C)cc1 | > 100 | 16.6 |  |
| NC(N)=N/N=C(\c1ccccc1)C(O)c1ccccc1 (stereo not drawn) | > 200 | 107 |  |
| COC(=O)c1c(C)cccc1C1CN=NC12Cc1cc(C)c(C)cc1C2=O (stereo not drawn) | > 200 | 120 |  |
| O=C1OC(=O)c2cnccc21 |  |  | inactive |
| COC(=O)c1cc(C(=CCCN=[N+]=[N-])c2cc(Cl)c(OC)c(C(=O)OC)c2)cc(Cl)c1OC | 33.1 | 34.7 |  |
| CS(=O)(=O)c1nc(NCCc2ccccc2)c2cnn(C3CCCCO3)c2n1 (stereo not drawn) |  |  | inactive |
| CSc1ccc(N2C(=O)C3c4[nH]c5ccccc5c4C4CCC(C(C)(C)C)CC4C3C2=O)cc1 (stereo not drawn) | > 2.19 | > 2.19 |  |
| OCCN1CCN(CCCN2c3cc(Cl)ccc3Sc3ccsc32)CC1 | > 316 | 15.5 |  |
| CC1=Nc2c(ccc3c2C(=O)c2ccccc2C3=O)NC(c2cccc3c2CCC3)C1 (stereo not drawn) | > 9.33 | > 9.33 |  |
| Nc1ccc(S(=O)(=O)N/N=C/c2ccco2)cc1 | > 676 | > 676 |  |
| COc1ccc(-c2cc(C)n(C3OC(CO)C(O)C(O)C3O)c(=S)c2C#N)cc1 (stereo not drawn) | > 200 | 126 |  |
| O=C1c2cccc3cc([N+](=O)[O-])cc(c23)C(=O)N1Cc1cccnc1 |  |  | inactive |
| O=c1[nH]c(=O)n(C2OC(CF)C(O)C2O)cc1N1CCOCC1 (stereo not drawn) | > 200 | > 200 |  |
| O=C1Sc2ccccc2C(=O)N2CCSC12 (stereo not drawn) | 126 | > 200 |  |
| CC(=O)OCC1OC(N2C(=S)N[C@H]([C@@H](O)[C@H](O)[C@H](O)CO)[C@H]2O)C(OC(C)=O)C(OC(C)=O)C1OC(C)=O (stereo partly drawn) | > 200 | > 200 |  |
| Cc1csc(CCC(N)C(=O)O)n1 (stereo not drawn) |  |  | inactive |

| SMILES | EC50 [µM] | IC50 [µM] | outcome |
| --- | --- | --- | --- |
| O=C(N/C(=C\c1cc(Cl)ccc1Cl)c1nc2[nH]c(=S)[nH]c(=O)c2[nH]1)c1ccccc1 | > 79.4 | 21.9 |  |
| O=C1CC2C3CC4CC(C3)CC2(C4)O1 (stereo not drawn) | > 200 | > 200 |  |
| OCc1c[te]c(-c2ccccc2)c1 |  |  | inactive |
| O=C1CC2(CCC3=C(O2)c2ccccc2NC(=O)C3)C(=O)c2ccccc2N1 (stereo not drawn) | > 69.2 | > 69.2 |  |
| O=C(Cc1ccccc1)NN1C(=O)C(Cl)C1c1cc(Br)cc(Br)c1O (stereo not drawn) | > 20.4 | 11.5 |  |
| CC(NC(C#N)CC12CC3CC(CC(C3)C1)C2)c1ccccc1 (stereo not drawn) | > 200 | 41.7 |  |
| CC(C)(C)c1c(C(C)(C)C)c(=O)c1=O | > 200 | > 200 |  |
| CCCCCCOC(=O)c1ccc(NC(=O)CN(CC)CC)cc1 | > 200 | 37.2 |  |
| CCCCOP(=O)(OCCCC)/C(C#N)=C/c1ccco1 | > 219 | 178 |  |
| c1cc(-c2cnc(-c3ccc4c(c3)CCCO4)o2)ccn1 | > 200 | 50.1 |  |
| O=C1c2ccc3c4ccccc4n(-c4ccccc4)c3c2C(=O)N1c1ccc(Cl)cc1 |  |  | inactive |
| CC1C(=O)C(C)C(c2ccccc2)NC1c1ccccc1 (stereo not drawn) | > 67.6 | > 67.6 |  |
| O=C(N/N=C\c1ccccn1)c1ccncc1 | > 200 | 91.2 |  |
| O=C(/C=C/c1cccs1)c1ccc([N+](=O)[O-])cc1 | > 200 |  |  |
| O=Nc1c(S(=O)(=O)O)cc2cc(S(=O)(=O)O)ccc2c1O | > 200 | > 200 |  |
| Nc1nc(N)c(N=O)c(Nc2ccc(Br)c(Br)c2)n1 |  |  | inactive |
| Cc1ccsc1/C=N/Nc1ncccn1 | > 200 | > 200 |  |
| O=C(O)C(C(C(=O)O)P(=O)(O)O)P(=O)(O)O (stereo not drawn) | > 200 | > 200 |  |
| Cc1cccc2c(N)c3cccc(C(=O)NCCN(C)C)c3nc12 | > 200 | 0.0631 |  |
| C=C=C(CC)C(C(=O)OC)N(CC)CC (stereo not drawn) |  |  | inactive |
| CCOC(=O)C1=C(Nc2ccccc2)OC/C1=N\NC(=O)Cc1ccccc1 | > 46.8 | > 46.8 |  |
| CCN(C(C)=O)c1cnc(/C=N/NC(N)=S)c2ccccc12 | > 200 | 2.57 |  |
